Experimental data: patent US20240228459A1 (Boundless Bio, Inc., priority 2022, published 2024)

How the values were obtained:
Wee1 = Wee1 (Homo sapiens, UniProt P30291); experiment: Wee1 pCDK1 activity (known assay); assay type: cell-based
Method: (§1) The Wee1 pCDK1 and PLK1 activities were determined using known assays.

PLK1 = PLK1 (Homo sapiens, UniProt P53350); experiment: PLK1 activity (known assay); assay type: biochemical
Method: as §1

Chain of Wee1 (P30291 whole entry, species assumed): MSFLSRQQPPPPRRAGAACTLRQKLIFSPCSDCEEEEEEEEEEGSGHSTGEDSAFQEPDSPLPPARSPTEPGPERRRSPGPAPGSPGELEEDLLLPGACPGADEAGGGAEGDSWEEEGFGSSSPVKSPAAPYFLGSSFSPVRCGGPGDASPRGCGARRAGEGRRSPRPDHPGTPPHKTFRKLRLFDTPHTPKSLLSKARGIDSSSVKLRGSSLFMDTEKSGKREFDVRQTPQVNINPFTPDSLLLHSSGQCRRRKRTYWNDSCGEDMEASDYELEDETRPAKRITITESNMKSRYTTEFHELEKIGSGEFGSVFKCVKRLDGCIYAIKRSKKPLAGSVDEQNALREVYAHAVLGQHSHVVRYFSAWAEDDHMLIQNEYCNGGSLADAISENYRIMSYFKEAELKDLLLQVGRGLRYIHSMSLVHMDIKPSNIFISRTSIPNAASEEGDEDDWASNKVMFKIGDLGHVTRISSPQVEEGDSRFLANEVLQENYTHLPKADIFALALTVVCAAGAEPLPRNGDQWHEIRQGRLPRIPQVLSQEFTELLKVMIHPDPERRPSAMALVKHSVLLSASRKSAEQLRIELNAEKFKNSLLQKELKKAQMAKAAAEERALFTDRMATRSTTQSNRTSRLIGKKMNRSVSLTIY
Chain of PLK1 (P53350 whole entry, species assumed): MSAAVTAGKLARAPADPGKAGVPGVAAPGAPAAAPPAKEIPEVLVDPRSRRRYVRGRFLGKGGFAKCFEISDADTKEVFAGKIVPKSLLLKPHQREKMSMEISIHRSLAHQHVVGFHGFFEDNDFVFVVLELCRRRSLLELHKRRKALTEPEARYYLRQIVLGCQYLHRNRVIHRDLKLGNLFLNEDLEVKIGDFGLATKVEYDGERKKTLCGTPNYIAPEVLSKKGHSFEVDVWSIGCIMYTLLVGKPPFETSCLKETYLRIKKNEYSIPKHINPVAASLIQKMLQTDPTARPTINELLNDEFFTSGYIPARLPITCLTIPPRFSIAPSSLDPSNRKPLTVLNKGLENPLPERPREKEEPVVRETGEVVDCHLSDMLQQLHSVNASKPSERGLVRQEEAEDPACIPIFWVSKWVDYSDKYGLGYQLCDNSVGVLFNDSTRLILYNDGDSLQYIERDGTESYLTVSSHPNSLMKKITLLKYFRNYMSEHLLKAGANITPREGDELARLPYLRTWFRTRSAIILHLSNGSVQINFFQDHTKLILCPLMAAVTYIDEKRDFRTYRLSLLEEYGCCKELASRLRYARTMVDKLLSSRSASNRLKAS

Structure (SMILES)	IC50 (Wee1) [nM]	IC50 (PLK1) [nM]
CCC1(O)CCc2ccc(Nc3nc(Nc4ccc5c(c4)CCNC5(C)C)ncc3C#N)nc21 (stereo not drawn) [Example 25, 2-[(1,1-dimethyl-3,4-dihydro-2H-isoquinolin-6-yl)amino]-4-[(7-ethyl-7-hydroxy-5,6-dihydrocyclopenta[b]pyridin-2-yl)amino]pyrimidine-5-carbonitrile]	500 to 1000	> 1000
CCC1(O)CCc2ccc(Nc3nc(Nc4ccc5c(c4)CNCC5(C)C)ncc3C#N)nc21 (stereo not drawn) [Example 30, 2-[(4,4-dimethyl-2,3-dihydro-1H-isoquinolin-7-yl)amino]-4-[(7-ethyl-7-hydroxy-5,6-dihydrocyclopenta[b]pyridin-2-yl)amino]pyrimidine-5-carbonitrile]	250 to 500	> 1000
CCC1(O)CCc2ccc(Nc3nc(Nc4ccc(N5CCNC6(CC6)C5)cc4)ncc3C#N)nc21 (stereo not drawn) [Example 31, 2-[4-(4,7-diazaspiro[2.5]octan-7-yl)anilino]-4-[(7-ethyl-7-hydroxy-5,6-dihydrocyclopenta[b]pyridin-2-yl)amino]pyrimidine-5-carbonitrile]	> 1000	100 to 250
CCC1(O)CCc2ccc(Nc3nc(Nc4ccc(N5CCN(C)C6(CC6)C5)cc4)ncc3C#N)nc21 (stereo not drawn) [Example 33, 4-[(7-ethyl-7-hydroxy-5,6-dihydrocyclopenta[b]pyridin-2-yl)amino]-2-[4-(4-methyl-4,7-diazaspiro[2.5]octan-7-yl)anilino]pyrimidine-5-carbonitrile]	> 1000	≤ 100
CCC1(O)CCc2ccc(Nc3nc(Nc4ccc(N5C6CCC5CN(C)C6)cc4)ncc3C#N)nc21 (stereo not drawn) [Example 36, 4-[(7-ethyl-7-hydroxy-5,6-dihydrocyclopenta[b]pyridin-2-yl)amino]-2-[4-(3-methyl-3,8-diazabicyclo[3.2.1]octan-8-yl)anilino]pyrimidine-5-carbonitrile]	250 to 500	> 1000
CCC1(O)CCc2ccc(Nc3nc(Nc4cc(F)c(C5CCN(C)CC5)c(F)c4)ncc3C#N)nc21 (stereo not drawn) [Example 40, 2-[3,5-difluoro-4-(1-methyl-4-piperidyl)anilino]-4-[(7-ethyl-7-hydroxy-5,6-dihydrocyclopenta[b]pyridin-2-yl)amino]pyrimidine-5-carbonitrile]	500 to 1000	> 1000
CCC1(O)CCc2ccc(Nc3nc(Nc4ccc(C5CCN(C)CC5)c(Cl)c4)ncc3C#N)nc21 (stereo not drawn) [Example 42, 2-[3-chloro-4-(1-methyl-4-piperidyl)anilino]-4-[(7-ethyl-7-hydroxy-5,6-dihydrocyclopenta[b]pyridin-2-yl)amino]pyrimidine-5-carbonitrile]	250 to 500	100 to 250
CCC1(O)CCc2ccc(Nc3nc(Nc4ccc(C5CCN(C)CC5)c(F)c4)ncc3C#N)nc21 (stereo not drawn) [Example 43, 4-[(7-ethyl-7-hydroxy-5,6-dihydrocyclopenta[b]pyridin-2-yl)amino]-2-[3-fluoro-4-(1-methyl-4-piperidyl)anilino]pyrimidine-5-carbonitrile]	250 to 500	250 to 500
CCC1(O)CCc2ccc(Nc3nc(Nc4ccc5c(c4)CN(C)CC5(C)C)ncc3C#N)nc21 (stereo not drawn) [Example 48, 4-[(7-ethyl-7-hydroxy-5,6-dihydrocyclopenta[b]pyridin-2-yl)amino]-2-[(2,4,4-trimethyl-1,3-dihydroisoquinolin-7-yl)amino]pyrimidine-5-carbonitrile]	250 to 500	> 1000
CCC1(O)CCc2ccc(Nc3nc(Nc4ccc(COC)c(N5CCN(C)CC5)c4)ncc3C#N)nc21 (stereo not drawn) [Example 50, 4-[(7-ethyl-7-hydroxy-5,6-dihydrocyclopenta[b]pyridin-2-yl)amino]-2-[4-(methoxymethyl)-3-(4-methylpiperazin-1-yl)anilino]pyrimidine-5-carbonitrile]	500 to 1000	100 to 250
CCC1(O)CCc2ccc(Nc3nc(Nc4ccc(N5CCN(C)C(C)C5)cc4)ncc3C#N)nc21 (stereo not drawn) [Example 52, 2-[4-(3,4-dimethylpiperazin-1-yl)anilino]-4-[(7-ethyl-7-hydroxy-5,6-dihydrocyclopenta[b]pyridin-2-yl)amino]pyrimidine-5-carbonitrile]	250 to 500	≤ 100
CCC1(O)CCc2ccc(Nc3nc(Nc4ccc(N5CCN(C(C)=O)C6(CC6)C5)cc4)ncc3C#N)nc21 (stereo not drawn) [Example 54, 2-[4-(4-acetyl-4,7-diazaspiro[2.5]octan-7-yl)anilino]-4-[(7-ethyl-7-hydroxy-5,6-dihydrocyclopenta[b]pyridin-2-yl)amino]pyrimidine-5-carbonitrile]	250 to 500	≤ 100
CCC1(O)CCc2ccc(Nc3nc(Nc4ccc5c(c4)CNCC54CC4)ncc3C#N)nc21 (stereo not drawn) [Example 55, 4-[(7-ethyl-7-hydroxy-5,6-dihydrocyclopenta[b]pyridin-2-yl)amino]-2-(spiro[2,3-dihydro-1H-isoquinoline-4,1′-cyclopropane]-7-ylamino)pyrimidine-5-carbonitrile]	> 1000	≤ 100

Continued, values first:

IC50 (Wee1) [nM]	IC50 (PLK1) [nM]	Structure (SMILES)
≤ 100	≤ 100	CCC1(O)CCc2ccc(Nc3nc(Nc4ccc(N5CC6CCC5CN6C)cc4)ncc3C#N)nc21 (stereo not drawn) [Example 24, 4-[(7-ethyl-7-hydroxy-5,6-dihydrocyclopenta[b]pyridin-2-yl)amino]-2-[4-(5-methyl-2,5-diazabicyclo[2.2.2]octan-2-yl)anilino]pyrimidine-5-carbonitrile]
≤ 100	> 1000	CCC1(O)CCc2ccc(Nc3nc(Nc4ccc5c(c4)CCN(C)C5(C)C)ncc3C#N)nc21 (stereo not drawn) [Example 26, 4-[(7-ethyl-7-hydroxy-5,6-dihydrocyclopenta[b]pyridin-2-yl)amino]-2-[(1,1,2-trimethyl-3,4-dihydroisoquinolin-6-yl)amino]pyrimidine-5-carbonitrile]
250 to 500	100 to 250	CCC1(O)CCc2ccc(Nc3nc(Nc4ccc5c(c4)CN(C)CC5)ncc3C#N)nc21 (stereo not drawn) [Example 29]
100 to 250	≤ 100	CCC1(O)CCc2ccc(Nc3nc(Nc4ccc(N5CC6CN(C)CC6C5)cc4)ncc3C#N)nc21 (stereo not drawn) [Example 34, 4-[(7-ethyl-7-hydroxy-5,6-dihydrocyclopenta[b]pyridin-2-yl)amino]-2-[4-(2-methyl-1,3,3a,4,6,6a-hexahydropyrrolo[3,4-c]pyrrol-5-yl)anilino]pyrimidine-5-carbonitrile]
100 to 250	≤ 100	CCC1(O)CCc2ccc(Nc3nc(Nc4ccc(N5CC6CCC(C5)N6C)cc4)ncc3C#N)nc21 (stereo not drawn) [Example 35, 4-[(7-ethyl-7-hydroxy-5,6-dihydrocyclopenta[b]pyridin-2-yl)amino]-2-[4-(8-methyl-3,8-diazabicyclo[3.2.1]octan-3-yl)anilino]pyrimidine-5-carbonitrile]
100 to 250	≤ 100	CCC1(O)CCc2ccc(Nc3nc(Nc4ccc(N5CCC6(CCN(C)CC6)CC5)cc4)ncc3C#N)nc21 (stereo not drawn) [Example 39, 4-[(7-ethyl-7-hydroxy-5,6-dihydrocyclopenta[b]pyridin-2-yl)amino]-2-[4-(9-methyl-3,9-diazaspiro[5.5]undecan-3-yl)anilino]pyrimidine-5-carbonitrile]
100 to 250	250 to 500	CCC1(O)CCc2ccc(Nc3nc(Nc4cc(C)c(C5CCN(C)CC5)c(F)c4)ncc3C#N)nc21 (stereo not drawn) [Example 41, 4-[(7-ethyl-7-hydroxy-5,6-dihydrocyclopenta[b]pyridin-2-yl)amino]-2-[3-fluoro-5-methyl-4-(1-methyl-4-piperidyl)anilino]pyrimidine-5-carbonitrile]
100 to 250	250 to 500	CCC1(O)CCc2ccc(Nc3nc(Nc4ccc(C5CCN(C)CC5)c(COC)c4)ncc3C#N)nc21 (stereo not drawn) [Example 44, 4-[(7-ethyl-7-hydroxy-5,6-dihydrocyclopenta[b]pyridin-2-yl)amino]-2-[3-(methoxymethyl)-4-(1-methyl-4-piperidyl)anilino]pyrimidine-5-carbonitrile]
≤ 100	≤ 100	CCC1(O)CCc2ccc(Nc3nc(Nc4ccc(C5CCN(C)CC5)c(OC)c4)ncc3C#N)nc21 (stereo not drawn) [Example 45, 4-[(7-ethyl-7-hydroxy-5,6-dihydrocyclopenta[b]pyridin-2-yl)amino]-2-[3-methoxy-4-(1-methyl-4-piperidyl)anilino]pyrimidine-5-carbonitrile]
100 to 250	250 to 500	CCC1(O)CCc2ccc(Nc3nc(Nc4ccc5c(c4)CCN(C)C5)ncc3C#N)nc21 (stereo not drawn) [Example 46, 4-[(7-ethyl-7-hydroxy-5,6-dihydrocyclopenta[b]pyridin-2-yl)amino]-2-[(2-methyl-3,4-dihydro-1H-isoquinolin-6-yl)amino]pyrimidine-5-carbonitrile]
≤ 100	250 to 500	CCC1(O)CCc2ccc(Nc3nc(Nc4cc(C)c5c(c4)CCN(C)C5)ncc3C#N)nc21 (stereo not drawn) [Example 47, 2-[(2,8-dimethyl-3,4-dihydro-1H-isoquinolin-6-yl)amino]-4-[(7-ethyl-7-hydroxy-5,6-dihydrocyclopenta[b]pyridin-2-yl)amino]pyrimidine-5-carbonitrile]
≤ 100	≤ 100	CCC1(O)CCc2ccc(Nc3nc(Nc4cc(C)c5c(c4)CN(C)CC5)ncc3C#N)nc21 (stereo not drawn) [Example 49, 2-[(2,5-dimethyl-3,4-dihydro-1H-isoquinolin-7-yl)amino]-4-[(7-ethyl-7-hydroxy-5,6-dihydrocyclopenta[b]pyridin-2-yl)amino]pyrimidine-5-carbonitrile]
100 to 250	250 to 500	CCC1(O)CCc2ccc(Nc3nc(Nc4ccc(N5CCN(C)CC5C)cc4)ncc3C#N)nc21 (stereo not drawn) [Example 51, 2-[4-(2,4-dimethylpiperazin-1-yl)anilino]-4-[(7-ethyl-7-hydroxy-5,6-dihydrocyclopenta[b]pyridin-2-yl)amino]pyrimidine-5-carbonitrile]
100 to 250	100 to 250	CCC1(O)CCc2ccc(Nc3nc(Nc4ccc5c(c4)CN(C)CC54CC4)ncc3C#N)nc21 (stereo not drawn) [Example 56, 4-[(7-ethyl-7-hydroxy-5,6-dihydrocyclopenta[b]pyridin-2-yl)amino]-2-[(2-methylspiro[1,3-dihydroisoquinoline-4,1′-cyclopropane]-7-yl)amino]pyrimidine-5-carbonitrile]
